Biological target: T1, Recombinant human liver GK1 (GST-GK) (Homo sapiens, UniProt P35557)
T1 construct: made in house; host or cells: E. coli
T1 sequence (P35557 1-466 isoform P35557-2): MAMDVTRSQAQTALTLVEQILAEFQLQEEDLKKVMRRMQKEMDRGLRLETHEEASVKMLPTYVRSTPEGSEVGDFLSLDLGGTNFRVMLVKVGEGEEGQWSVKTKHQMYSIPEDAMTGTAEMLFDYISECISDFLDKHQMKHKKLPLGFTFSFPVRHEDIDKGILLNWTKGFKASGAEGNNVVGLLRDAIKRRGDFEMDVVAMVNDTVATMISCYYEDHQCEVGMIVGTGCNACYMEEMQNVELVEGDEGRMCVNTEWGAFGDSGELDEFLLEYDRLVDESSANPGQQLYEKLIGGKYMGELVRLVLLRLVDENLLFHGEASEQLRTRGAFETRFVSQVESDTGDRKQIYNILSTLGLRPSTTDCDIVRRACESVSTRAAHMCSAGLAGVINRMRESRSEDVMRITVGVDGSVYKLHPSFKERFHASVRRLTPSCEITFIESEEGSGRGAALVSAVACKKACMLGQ
Experiment: In vitro glucokinase activity, G6PDH-coupled spectrophotometric assay
Assay type: biochemical
Conditions: 5 mM D-glucose, 30° C., pH 7.1
How it was run: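 GST-fused human liver GK1 from E. coli, run at 30° C. in pH 7.1 HEPES with 5 mM glucose, 1 mM ATP and 10% DMSO, coupled via G6PDH to NADH. OD340 rate measured after enzyme start; SC1.5 is the activator concentration raising activity 50% over DMSO control.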

| SC1.5 (concentration of activator that produced a 50% increase in the activity of GK) [µM] | SMILES |
| --- | --- |
| 0.49 | O=C(Nc1ccccn1)C(CC1CCCC1)N1C(=O)Cc2cc(Cl)ccc21 (centres unmarked) [Example 100, 2-(5-Chloro-2-oxo-2,3-dihydro-indol-1-yl)-3-cyclopentyl-N-pyridin-2-yl-propionamide] |
| 4.85 | CC(C)CC(C(=O)Nc1cnccn1)N1C(=O)C(=O)c2ccc(Cl)cc21 (centres unmarked) [Example 112, 2-(6-Chloro-2,3-dioxo-2,3-dihydro-indol-1-yl)-4-methyl-pentanoic acid pyrazin-2-ylamide] |
| 0.6 | O=C1C(=O)N(C(CC2CCCC2)C(=O)Nc2nccs2)c2cc(Cl)ccc21 (centres unmarked) [Example 117, 2-(6-Chloro-2,3-dioxo-2,3-dihydro-indol-1-yl)-3-cyclopentyl-N-thiazol-2-yl-propionamide] |
| 0.23 | O=C1C(=O)N(C(CC2CCCC2)C(=O)Nc2ccccn2)c2cc(Cl)ccc21 (centres unmarked) [Example 118, 2-(6-chloro-2,3-dioxo-2,3-dihydro-indol-1-yl)-3-cyclopentyl-N-pyridin-2-yl-propionamide] |
| 2.24 | Cn1ccc(NC(=O)C(CC2CCCC2)N2C(=O)C(=O)c3ccc(Cl)cc32)n1 (centres unmarked) [Example 119, 2-(6-Chloro-2,3-dioxo-2,3-dihydro-indol-1-yl)-3-cyclopentyl-N-(1-methyl-1H-pyrazol-3-yl)-propionamide] |
| 0.9 | O=C1C(=O)N(C(CC2CCCC2)C(=O)Nc2cnccn2)c2cc(Cl)ccc21 (centres unmarked) [Example 120, 2-(6-Chloro-2,3-dioxo-2,3-dihydro-indol-1-yl)-3-cyclopentyl-N-pyrazin-2-yl-propionamide] |
| 0.38 | O=C(Nc1cnccn1)C(CC1CCCC1)N1C(=O)Cc2ccc(Cl)cc21 (centres unmarked) [Example 121, 2-(6-Chloro-2-oxo-2,3-dihydro-indol-1-yl)-3-cyclopentyl-N-pyrazin-2-yl-propionamide] |
| 0.1 | O=C(Nc1ccccn1)C(CC1CCCC1)N1C(=O)Cc2ccc(Cl)cc21 (centres unmarked) [Example 122, 2-(6-Chloro-2-oxo-2,3-dihydro-indol-1-yl)-3-cyclopentyl-N-pyridin-2-yl-propionamide] |
| 0.27 | O=C(Nc1nccs1)C(CC1CCCC1)N1C(=O)Cc2ccc(Cl)cc21 (centres unmarked) [Example 123, 2-(6-Chloro-2-oxo-2,3-dihydro-indol-1-yl)-3-cyclopentyl-N-thiazol-2-yl-propionamide] |

The remaining lines, values behind:

| SMILES | SC1.5 (concentration of activator that produced a 50% increase in the activity of GK) [µM] |
| --- | --- |
| O=C(Nc1nccs1)C(CC1CCCC1)N1C(=O)Cc2cc(Cl)ccc21 (centres unmarked) [Example 98, 2-(5-Chloro-2-oxo-2,3-dihydro-indol-1-yl)-3-cyclopentyl-N-thiazol-2-yl-propionamide] | 1.22 |
| Cn1ccc(NC(=O)C(CC2CCCC2)N2C(=O)Cc3cc(Cl)ccc32)n1 (centres unmarked) [Example 99, 2-(5-Chloro-2-oxo-2,3-dihydro-indol-1-yl)-3-cyclopentyl-N-(1-methyl-1H-pyrazol-3-yl)-propionamide] | 3.3 |
| CC(C)CC(C(=O)Nc1ccccn1)N1C(=O)C(=O)c2cc(Cl)ccc21 (centres unmarked) [Example 102, 2-(5-Chloro-2,3-dioxo-2,3-dihydro-indol-1-yl)-4-methyl-pentanoic acid pyridin-2-ylamide] | 16.89 |
| CC(C)CC(C(=O)Nc1nccs1)N1C(=O)Cc2cc(Cl)ccc21 (centres unmarked) [Example 105, 2-(5-Chloro-2-oxo-2,3-dihydro-indol-1-yl)-4-methyl-pentanoic acid thiazol-2-ylamide] | 6.74 |
| CC(C)CC(C(=O)Nc1cnccn1)N1C(=O)Cc2cc(Cl)ccc21 (centres unmarked) [Example 106, 2-(5-Chloro-2-oxo-2,3-dihydro-indol-1-yl)-4-methyl-pentanoic acid pyrazin-2-ylamide] | 20.67 |
| CC(C)CC(C(=O)Nc1ccccn1)N1C(=O)Cc2cc(Cl)ccc21 (centres unmarked) [Example 108, 2-(5-Chloro-2-oxo-2,3-dihydro-indol-1-yl)-4-methyl-pentanoic acid pyridin-2-ylamide] | 4.95 |
| CC(C)CC(C(=O)Nc1nccs1)N1C(=O)C(=O)c2ccc(Cl)cc21 (centres unmarked) [Example 109, 2-(6-Chloro-2,3-dioxo-2,3-dihydro-indol-1-yl)-4-methyl-pentanoic acid thiazol-2-ylamide] | 3.29 |
| CC(C)CC(C(=O)Nc1ccccn1)N1C(=O)C(=O)c2ccc(Cl)cc21 (centres unmarked) [Example 110, 2-(6-Chloro-2,3-dioxo-2,3-dihydro-indol-1-yl)-4-methyl-pentanoic acid pyridin-2-ylamide] | 1.49 |
| CC(C)CC(C(=O)Nc1ccn(C)n1)N1C(=O)C(=O)c2ccc(Cl)cc21 (centres unmarked) [Example 111, 2-(6-Chloro-2,3-dioxo-2,3-dihydro-indol-1-yl)-4-methyl-pentanoic acid (1-methyl-1H-pyrazol-3-yl)-amide] | 15.93 |
| CC(C)CC(C(=O)Nc1cnccn1)N1C(=O)Cc2ccc(Cl)cc21 (centres unmarked) [Example 113, 2-(6-Chloro-2-oxo-2,3-dihydro-indol-1-yl)-4-methyl-pentanoic acid pyrazin-2-ylamide] | 2.64 |
| CC(C)CC(C(=O)Nc1ccccn1)N1C(=O)Cc2ccc(Cl)cc21 (centres unmarked) [Example 114, 2-(6-Chloro-2-oxo-2,3-dihydro-indol-1-yl)-4-methyl-pentanoic acid pyridin-2-ylamide] | 0.91 |
| CC(C)CC(C(=O)Nc1nccs1)N1C(=O)Cc2ccc(Cl)cc21 (centres unmarked) [Example 115, 2-(6-Chloro-2-oxo-2,3-dihydro-indol-1-yl)-4-methyl-pentanoic acid thiazol-2-ylamide] | 1.48 |
| CC(C)CC(C(=O)Nc1ccn(C)n1)N1C(=O)Cc2ccc(Cl)cc21 (centres unmarked) [Example 116, 2-(6-Chloro-2-oxo-2,3-dihydro-indol-1-yl)-4-methyl-pentanoic acid (1-methyl-1H-pyrazol-3-yl)-amide] | 7.27 |

Same assay, conditions: @ 30 uM; 5 mM D-glucose, 30° C.

| SMILES | fold induction at 30 µM |
| --- | --- |
| CC(C)CC(C(=O)Nc1nccs1)N1C(=O)C(=O)c2cc(Cl)ccc21 (centres unmarked) [Example 101, 2-(5-Chloro-2,3-dioxo-2,3-dihydro-indol-1-yl)-4-methyl-pentanoic acid thiazol-2-ylamide] | 1.4 |
| CC(C)CC(C(=O)Nc1cnccn1)N1C(=O)C(=O)c2cc(Cl)ccc21 (centres unmarked) [Example 103, 2-(5-Chloro-2,3-dioxo-2,3-dihydro-indol-1-yl)-4-methyl-pentanoic acid pyrazin-2-ylamide] | 1.3 |
| CC(C)CC(C(=O)Nc1ccn(C)n1)N1C(=O)C(=O)c2cc(Cl)ccc21 (centres unmarked) [Example 104, 2-(5-Chloro-2,3-dioxo-2,3-dihydro-indol-1-yl)-4-methyl-pentanoic acid (1-methyl-1H-pyrazol-3-yl)-amide] | 1.21 |
| CC(C)CC(C(=O)Nc1ccn(C)n1)N1C(=O)Cc2cc(Cl)ccc21 (centres unmarked) [Example 107, 2-(5-Chloro-2-oxo-2,3-dihydro-indol-1-yl)-4-methyl-pentanoic acid (1-methyl-1H-pyrazol-3-yl)-amide] | 1.22 |

— patent publication US20120142705A1, “ISATIN AND OXINDOLE COMPOUNDS” (priority 2010, published 2012)
